Assay results from the supplement of paper PMC8967900.

Key:
Assay in all cases: selective drug sensitivity score (sDSS, relative to normal bone marrow) (sDSS (score)); higher = more potent and effective on the cell line relative to normal bone marrow cells
Details in all cases: 72 h
KARPAS-45 = test system: KARPAS-45
HAL-01 = test system: HAL-01
MHH-CALL-4 = test system: MHH-CALL-4
MOLT-14 = test system: MOLT-14
PF-382 = test system: PF-382
KOPN-8 = test system: KOPN-8
ALL-SIL = test system: ALL-SIL
NALM-6 = test system: NALM-6
NALL-1 = test system: NALL-1
JURKAT = test system: JURKAT
380 = test system: 380
CCRF-CEM = test system: CCRF-CEM
COG-LL-319h = test system: COG-LL-319h
697 = test system: 697
HPB-ALL = test system: HPB-ALL
P12-ICHIKAWA = test system: P12-ICHIKAWA
KASUMI-2 = test system: KASUMI-2
MHH-CALL-2 = test system: MHH-CALL-2
KASUMI-10 = test system: KASUMI-10
COG-LL-332h = test system: COG-LL-332h
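Note: ALL cell lines in 384-well plates, five doses spanning 10,000-fold, each plate scaled between vehicle and 100 µmol/L benzalkonium chloride controls, sDSS an adapted area-under-curve metric.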

| SMILES | selective drug sensitivity score (KARPAS-45) | selective drug sensitivity score (HAL-01) | selective drug sensitivity score (MHH-CALL-4) | selective drug sensitivity score (MOLT-14) | selective drug sensitivity score (PF-382) | selective drug sensitivity score (KOPN-8) | selective drug sensitivity score (ALL-SIL) | selective drug sensitivity score (NALM-6) | selective drug sensitivity score (NALL-1) | selective drug sensitivity score (JURKAT) | selective drug sensitivity score 380 | selective drug sensitivity score (CCRF-CEM) | selective drug sensitivity score (COG-LL-319h) | selective drug sensitivity score 697 | selective drug sensitivity score (HPB-ALL) | selective drug sensitivity score (P12-ICHIKAWA) | selective drug sensitivity score (KASUMI-2) | selective drug sensitivity score (MHH-CALL-2) | selective drug sensitivity score (KASUMI-10) | selective drug sensitivity score (COG-LL-332h) |
| --- | --- | --- | --- | --- | --- | --- | --- | --- | --- | --- | --- | --- | --- | --- | --- | --- | --- | --- | --- | --- |
| Cn1c(=O)n(-c2ccc(C(C)(C)C#N)cc2)c2c3cc(-c4cnc5ccccc5c4)ccc3ncc21 [Dactolisib] (top concentration 1000 nM) | 6.56 | 9.66 | 4.06 | 0.36 | 9.36 | 15.1 | 4.96 | 6.36 | 3.46 | 7.26 | 17.5 | 12.9 | -7.44 | 15.8 | 1.36 | 4.76 | 9.06 | 9.36 | -1.04 | 5.96 |
| CC(C)C[C@H](NC(=O)[C@H](CCc1ccccc1)NC(=O)CN1CCOCC1)C(=O)N[C@@H](Cc1ccccc1)C(=O)N[C@@H](CC(C)C)C(=O)[C@@]1(C)CO1 [Carfilzomib] (top concentration 1000 nM) | 0.66 | -8.84 | 1.56 | 1.16 | 1.86 | 1.46 | 1.66 | 1.06 | 0.56 | -4.04 | 0.06 | 4.86 | 2.56 | 0.66 | 3.96 | 1.26 | -0.04 | 1.56 | 0.36 | 5.16 |
| Nc1nc2[nH]cnc2c(=S)[nH]1 [Thioguanine] (top concentration 10000 nM) | 15 | 9.44 | 4.34 | 15.7 | 12 | 13.2 | 12.8 | 10.2 | 8.64 | 12.4 | 6.04 | 15.3 | 18.6 | 8.84 | 11.2 | 13.6 | 2.54 | 11.9 | 5.24 | 14.5 |
| C=CC(=O)Nc1cc2c(Nc3ccc(F)c(Cl)c3)ncnc2cc1OCCCN1CCOCC1 [Canertinib] (top concentration 10000 nM) | -0.24 | 2.76 | 1.66 | -0.04 | -0.54 | 4.36 | 5.16 | -1.34 | -0.94 | -1.14 | 3.16 | 1.56 | 3.36 | 1.66 | 0.76 | -1.54 | 1.86 | 3.16 | 4.66 | 1.86 |
| CC(C)C[C@H](NC(=O)[C@H](Cc1ccccc1)NC(=O)c1cnccn1)B(O)O [Bortezomib] (top concentration 1000 nM) | 1.42 | 4.12 | 3.92 | 1.52 | 1.82 | 3.42 | 4.72 | 1.82 | 2.52 | 1.72 | 1.42 | 6.52 | 4.02 | 2.62 | 5.22 | 2.22 | 1.42 | 3.82 | 2.92 | 4.22 |
| O=C(/C=C\n1cnc(-c2cc(C(F)(F)F)cc(C(F)(F)F)c2)n1)NNc1ccccn1 [Verdinexor] (top concentration 1000 nM) | 7.54 | 3.94 | 1.84 | 13.3 | 6.54 | 8.34 | 3.74 | 11.7 | 0.64 | 8.74 | 12 | 5.24 | 11.3 | 6.34 | 1.84 | 5.64 | 12.9 | 1.84 | 1.54 | 7.74 |
| CNC(=O)c1cc(Oc2ccc(NC(=O)Nc3ccc(Cl)c(C(F)(F)F)c3)c(F)c2)ccn1 [Regorafenib] (top concentration 10000 nM) | 3.44 | 2.04 | 2.74 | 4.04 | 4.34 | 10.9 | 10 | 4.04 | 3.24 | 4.04 | 8.54 | 3.74 | 1.84 | 7.94 | 1.34 | 3.24 | 10 | 1.64 | 7.34 | 6.74 |
| COC(=O)C[C@](O)(CCCC(C)(C)O)C(=O)O[C@@H]1C(OC)=C[C@]23CCCN2CCc2cc4c(cc2[C@H]13)OCO4 [Omacetaxine] (top concentration 10000 nM) | 3.72 | 1.32 | 3.52 | 5.62 | 0.62 | 5.02 | -1.88 | 4.52 | -6.78 | -0.48 | 14.1 | 3.02 | 4.12 | 10.5 | -4.48 | 0.82 | 10.8 | 3.82 | 4.82 | 2.62 |
| O=C(NOC[C@H](O)CO)c1ccc(F)c(F)c1Nc1ccc(I)cc1F (top concentration 1000 nM) | -3.76 | 6.34 | 6.24 | 8.84 | -2.36 | 10.1 | 3.54 | 7.54 | -4.16 | -3.96 | 2.24 | 1.14 | 2.44 | 0.14 | 0.74 | 0.84 | 10.1 | -0.36 | -2.86 | -2.26 |
| CC(=O)OC[C@H]1O[C@@H]([S-])[C@H](OC(C)=O)[C@@H](OC(C)=O)[C@@H]1OC(C)=O.CCP(CC)CC.[Au+] [Auranofin] (top concentration 2500 nM) | 0.94 | 6.44 | 7.34 | 0.04 | -1.36 | 11.6 | 2.44 | 5.34 | 3.14 | -1.76 | 12.3 | 2.74 | 8.24 | 1.94 | 5.64 | -0.96 | 0.54 | 8.14 | 5.54 | 1.44 |
| C[C@@H]1CN(CC(=O)Nc2ccc3c(c2)Cc2cccc(-c4cc(=O)cc(N5CCOCC5)o4)c2S3)C[C@H](C)O1 (top concentration 25000 nM) | 1.72 | -0.18 | 0.12 | 0.32 | 0.82 | 5.72 | 3.32 | 2.92 | -2.18 | 0.92 | -1.88 | 2.62 | 6.72 | 0.42 | 2.22 | -0.58 | -2.08 | 0.92 | -2.18 | 2.02 |
| Cc1ccc(Nc2nccc(N(C)c3ccc4c(C)n(C)nc4c3)n2)cc1S(N)(=O)=O [Pazopanib] (top concentration 10000 nM) | 1.74 | -0.16 | -1.26 | -1.26 | 1.74 | 5.64 | 2.64 | -1.26 | -1.26 | 2.84 | -0.86 | 0.04 | 0.74 | 4.94 | 0.64 | 1.04 | 3.44 | 6.24 | 2.24 | 0.14 |
| CCS(=O)(=O)c1cccc(-c2cc(C(=O)NC3CCN(C)CC3)c(C)c3[nH]c4ncc(C)cc4c23)c1 [TAK-901] (top concentration 1000 nM) | 8.86 | -2.74 | 3.16 | 7.26 | 7.16 | 10.8 | 15.3 | 9.66 | 11.8 | 1.86 | 10.4 | 11.2 | 10.5 | 12.8 | 5.36 | 12.3 | 7.56 | 7.26 | 9.76 | 11.3 |
| Nc1cc(F)ccc1NC(=O)/C=C/c1cnn(C/C=C/c2ccccc2)c1 [RGFP966] (top concentration 10000 nM) | 14.6 | 12.7 | 2.94 | 17.1 | 11.1 | 11.5 | 12.4 | 13.3 | 12.2 | 11.2 | 12.9 | 13.9 | 17.5 | 13.2 | 11 | 17.8 | 8.24 | 7.84 | 9.44 | 15.7 |
| Cc1cccc(CC(=O)N2CCc3c2ccc(-c2cn(C)c4ncnc(N)c24)c3F)n1 (top concentration 2500 nM) | 1.32 | 2.92 | 4.22 | 1.22 | 3.72 | -0.68 | 0.32 | 4.32 | -0.68 | 8.22 | -0.68 | -0.08 | 0.52 | 3.42 | -0.68 | 2.82 | -0.68 | 5.02 | -0.68 | 0.32 |
| O=C(CCCCCCC(=O)Nc1ccccc1)NO [Vorinostat] (top concentration 10000 nM) | 9.9 | 0.8 | 3.9 | 9.6 | 4.1 | 13.4 | 7.5 | 2.3 | -3.5 | 3.6 | 8.8 | 5.9 | 11.5 | 10.1 | 6 | 6.6 | 17.6 | 8.7 | 4.6 | 3.4 |
| COc1ccc(-c2ccc3ncc4c(c3c2)n(-c2ccc(N3CCNCC3)c(C(F)(F)F)c2)c(=O)n4C)cn1 [NVP-BGT226] (top concentration 1000 nM) | 3.42 | 2.22 | 2.32 | 1.52 | 6.02 | 9.52 | 2.82 | 4.32 | -2.88 | 2.82 | 12.2 | 10.1 | 0.72 | 14.2 | -0.18 | 2.72 | 7.92 | 3.92 | -0.18 | 5.02 |
| C[C@]12C=CC(=O)C=C1CC[C@@H]1[C@@H]2[C@@H](O)C[C@@]2(C)[C@H]1CC[C@]2(O)C(=O)CO [Prednisolone] (top concentration 10000 nM) | 12.3 | -2.6 | 25.5 | -0.5 | -1.6 | 22.6 | 8.9 | 15.9 | 18 | -2.1 | 23.8 | 6.4 | 16.2 | 17.8 | 2.2 | 14.6 | 13.5 | 23.1 | -3 | 2.5 |
